The results in this text go back to patent publication US11970498B2, “CDK2 inhibitors” (BLUEPRINT MEDICINES CORPORATION, priority 2021, dated 2024).

pIC50: −log10 of the molar value. Like-named read-outs stand apart in the source and are kept apart here. Bounds are passed on as bounds.

One assay addresses T1, CDK1/Cyclin B1, GST-tag (Homo sapiens, UniProt P06493).
T1 construct: GST
Description: CDK1/Cyclin B1 biochemical phosphorylation assay (Caliper mobility shift). Particulars: apparent IC50; 1.0 mM ATP or ATP Km; 1.5 nM enzyme; 25° C. As for the experimental part:
(§1) Inhibitory effects of the compounds of the disclosure were measured in biochemical assays that measure the enzymatic phosphorylation activity of CDK enzyme in complex of Cyclin proteins phosphorylates 7.5 micromolar fluorescently labelled peptide substrate, 5-FAM-QSPKKG-CONH2, (FL-Peptide 18, Perkin Elmer, 760362) in the presence of adenosine-5′-triphosphate (ATP) and varying concentrations of the test compound in 100 mM 2-[4-(2-hydroxyethyl)piperazin-1-yl] ethanesulfonic acid (HEPES), pH 7.5, 10 mM MgCl2, 0.015% Brij-35, 1 mM dithiothreitol (DTT), 1.0% dimethylsulfoxide (DMSO). Assays were performed at 1.0 mM ATP or at ATP Km of the CDK enzymes in complex with Cyclin proteins. Reactions proceeded until between 10% to 20% total peptides were phosphorylated at room temperature (25° C.) and were terminated with 35 mM 2,2′,2″,2′″-(ethane-1,2-diyldinitrilo)tetraacetic acid (EDTA). Product was detected using the Caliper mobility shift detection method where the phosphorylated peptide (product) and substrate were electrophoretically separated and measured. Percent activity was plotted against log concentration of compound and points to generate an apparent IC50. The following CDK enzymes in complex with different cyclin proteins were used in these assays: • CDK1/Cyclin B1, GST-tag (BPS, 40454), 1.5 nM used in the assay • CDK2/Cyclin E (Eurofins, 14-475), 1.25 nM used in the assays
(§2) For inhibitory activity against CDK2/Cyclin E mutant, the following designations are used: ≤10 nM=A; >10-20 nM=B; >20-30 nM=C; >30-100 nM=D and >100=E. For inhibition CDK1/Cyclin B1, GST-tag: ≥500 nM=A; <100-500 nM=B; <100 nM=C.

The target of a further assay is CDK2/Cyclin E (Homo sapiens, UniProt P24941). Briefly: CDK2/Cyclin E biochemical phosphorylation assay (Caliper mobility shift). On the procedure: as §1, §2
Setting [1] is: apparent IC50, 1.0 mM ATP or ATP Km, 1.25 nM enzyme, 25° C., read-out: CDK2/cyclin E1 IC50.

T1 sequence (P06493 whole entry): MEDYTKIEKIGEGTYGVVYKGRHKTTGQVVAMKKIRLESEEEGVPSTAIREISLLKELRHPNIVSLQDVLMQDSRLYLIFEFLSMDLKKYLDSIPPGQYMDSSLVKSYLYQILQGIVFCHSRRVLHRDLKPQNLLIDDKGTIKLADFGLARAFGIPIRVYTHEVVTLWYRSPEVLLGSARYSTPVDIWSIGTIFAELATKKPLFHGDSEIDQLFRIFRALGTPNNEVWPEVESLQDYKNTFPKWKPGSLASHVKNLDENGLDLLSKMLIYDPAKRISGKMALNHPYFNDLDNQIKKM
T1 sequence (P14635 whole entry partner): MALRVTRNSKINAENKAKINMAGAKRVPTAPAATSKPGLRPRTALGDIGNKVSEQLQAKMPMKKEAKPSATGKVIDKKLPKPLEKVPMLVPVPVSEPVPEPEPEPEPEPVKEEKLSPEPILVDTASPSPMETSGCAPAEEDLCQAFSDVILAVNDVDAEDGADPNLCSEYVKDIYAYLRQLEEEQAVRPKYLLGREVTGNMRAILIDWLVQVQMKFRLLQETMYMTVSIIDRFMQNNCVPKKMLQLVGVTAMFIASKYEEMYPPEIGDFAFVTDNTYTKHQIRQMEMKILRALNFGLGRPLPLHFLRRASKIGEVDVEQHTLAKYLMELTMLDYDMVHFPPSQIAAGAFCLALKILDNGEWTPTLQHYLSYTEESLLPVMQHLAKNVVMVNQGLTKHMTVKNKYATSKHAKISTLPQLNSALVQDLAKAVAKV

Take `FC(F)Oc1cc(Nc2cnc3cnn(C[C@@]4(F)CCOC4)c3n2)n[nH]1` (single isomer, unassigned) [Example 168, (R)-N-(5-(difluoromethoxy)-1H-pyrazol-3-yl)-1-((3-fluorotetrahydrofuran-3-yl)methyl)-1H-pyrazolo[3,4-b]pyrazin-6-amine or (S)-N-(5-(difluoromethoxy)-1H-pyrazol-3-yl)-1-((3-fluorotetrahydrofuran-3-yl)methyl)-1H-pyrazolo[3,4-b]pyrazin-6-amine]: the pIC50 is at most 6.30 on CDK1/Cyclin B1, GST-tag and 7.00 to 7.52 on CDK2/Cyclin E (setting [1]).

As for `FC(F)Oc1cc(Nc2cnc3cnn([C@@H](C(F)F)C4CCOCC4)c3n2)n[nH]1` (single isomer, unassigned) [Example 29, (R)-1-(2,2-difluoro-1-(tetrahydro-2H-pyran-4-yl)ethyl)-N-(5-(difluoromethoxy)-1H-pyrazol-3-yl)-1H-pyrazolo[3,4-b]pyrazin-6-amine or (S)-1-(2,2-difluoro-1-(tetrahydro-2H-pyran-4-yl)ethyl)-N-(5-(difluoromethoxy)-1H-pyrazol-3-yl)-1H-pyrazolo[3,4-b]pyrazin-6-amine], the pIC50 on CDK1/Cyclin B1, GST-tag is at most 6.30; on CDK2/Cyclin E (setting [1]), at least 8.00. On the same counts, the results for `C[C@@H](C1CCOCC1)n1ncc2ncc(Nc3cc(OC(F)F)[nH]n3)nc21` [Example 77, (S)-N-(5-(difluoromethoxy)-1H-pyrazol-3-yl)-1-(1-(tetrahydro-2H-pyran-4-yl)ethyl)-1H-pyrazolo[3,4-b]pyrazin-6-amine] are 6.30 to 7.00 and at least 8.00. On the same counts, the results for `C[C@@H](C1CCOCC1)n1nc(C#N)c2ncc(Nc3cc(OC(F)F)[nH]n3)nc21` [Example 64, (S)-6-((5-(difluoromethoxy)-1H-pyrazol-3-yl)amino)-1-(1-(tetrahydro-2H-pyran-4-yl)ethyl)-1H-pyrazolo[3,4-b]pyrazine-3-carbonitrile] are at most 6.30 and 7.52 to 7.70. On the same counts, the results for `C[C@@H](C1CC1)n1ncc2ncc(Nc3cc(OC(F)F)[nH]n3)nc21` [Example 51, (S)-1-(1-cyclopropylethyl)-N-(5-(difluoromethoxy)-1H-pyrazol-3-yl)-1H-pyrazolo[3,4-b]pyrazin-6-amine] are 6.30 to 7.00 and at least 8.00. With `FC[C@@H](c1ccccn1)n1ncc2ncc(Nc3cc(OC(F)F)[nH]n3)nc21` (single isomer, unassigned) [Example 15, (R)—N-(5-(difluoromethoxy)-1H-pyrazol-3-yl)-1-(2-fluoro-1-(pyridin-2-yl)ethyl)-1H-pyrazolo[3,4-b]pyrazin-6-amine or (S)—N-(5-(difluoromethoxy)-1H-pyrazol-3-yl)-1-(2-fluoro-1-(pyridin-2-yl)ethyl)-1H-pyrazolo[3,4-b]pyrazin-6-amine], the pIC50 was at most 6.30 at CDK1/Cyclin B1, GST-tag and 7.00 to 7.52 on CDK2/Cyclin E (setting [1]). The corresponding values for `C[C@H](c1cccnn1)n1ncc2ncc(Nc3cc(OC(F)F)[nH]n3)nc21` (single isomer, unassigned) [Example 25, (R)—N-(5-(difluoromethoxy)-1H-pyrazol-3-yl)-1-(1-(pyridazin-3-yl)ethyl)-1H-pyrazolo[3,4-b]pyrazin-6-amine or (S)—N-(5-(difluoromethoxy)-1H-pyrazol-3-yl)-1-(1-(pyridazin-3-yl)ethyl)-1H-pyrazolo[3,4-b]pyrazin-6-amine] are at most 6.30 and 7.00 to 7.52. On the same counts, the results for `OC1(Cn2ncc3ncc(Nc4cc(OC(F)F)[nH]n4)nc32)CCOCC1` [Example 49, 4-((6-((5-(difluoromethoxy)-1H-pyrazol-3-yl)amino)-1H-pyrazolo[3,4-b]pyrazin-1-yl)methyl)tetrahydro-2H-pyran-4-ol] are 6.30 to 7.00 and at least 8.00. Turning to `C[C@@H]1C[C@H](Cn2ncc3ncc(Nc4cc(OC(F)F)[nH]n4)nc32)C[C@H](C)O1` [Example 65, N-(5-(difluoromethoxy)-1H-pyrazol-3-yl)-1-(((2R,4r,6S)-2,6-dimethyltetrahydro-2Hpyran-4-yl)methyl)-1Hpyrazolo[3,4-b]pyrazin-6-amine], the pIC50 at CDK1/Cyclin B1, GST-tag is above 7.00; at CDK2/Cyclin E (setting [1]), at least 8.00.

For the molecule `FC(F)Oc1cc(Nc2cnc3cnn(C[C@H]4CCCCO4)c3n2)n[nH]1` [Example 107, (R)-N-(5-(difluoromethoxy)-1H-pyrazol-3-yl)-1-((tetrahydro-2H-pyran-2-yl)methyl)-1H-pyrazolo[3,4-b]pyrazin-6-amine], the pIC50 was at most 6.30 on CDK1/Cyclin B1, GST-tag and 7.52 to 7.70 at CDK2/Cyclin E (setting [1]). The corresponding values for `C[C@@H](c1cncc(F)c1)n1ncc2ncc(Nc3cc(OC(F)F)[nH]n3)nc21` (single isomer, unassigned) [Example 153, (S)-N-(5-(difluoromethoxy)-1H-pyrazol-3-yl)-1-(1-(5-fluoropyridin-3-yl)ethyl)-1H-pyrazolo[3,4-b]pyrazin-6-amine or (R)-N-(5-(difluoromethoxy)-1H-pyrazol-3-yl)-1-(1-(5-fluoropyridin-3-yl)ethyl)-1H-pyrazolo[3,4-b]pyrazin-6-amine] are at most 6.30 and 7.70 to 8.00. For `FC(F)Oc1cc(Nc2cnc3cnn(CC45CC(C4)C5)c3n2)n[nH]1` [Example 106, 1-(bicyclo[1.1.1]pentan-1-ylmethyl)-N-(5-(difluoromethoxy)-1H-pyrazol-3-yl)-1H-pyrazolo[3,4-b]pyrazin-6-amine], the pIC50 is 6.30 to 7.00 on CDK1/Cyclin B1, GST-tag and at least 8.00 on CDK2/Cyclin E (setting [1]). With `C[C@@H]([C@@H]1CCOC1)n1ncc2ncc(Nc3cc(OC(F)F)[nH]n3)nc21` (single isomer, unassigned) [Example 9], the pIC50 on CDK1/Cyclin B1, GST-tag is at most 6.30; at CDK2/Cyclin E (setting [1]), at least 8.00. On to `FC(F)Oc1cc(Nc2cnc3cnn(CC45CCC(CC4)OC5)c3n2)n[nH]1` [Example 118, 1-((2-oxabicyclo[2.2.2]octan-4-yl)methyl)-N-(5-(difluoromethoxy)-1H-pyrazol-3-yl)-1H-pyrazolo[3,4-b]pyrazin-6-amine], for which the pIC50 at CDK1/Cyclin B1, GST-tag was 6.30 to 7.00; at CDK2/Cyclin E (setting [1]) it was at least 8.00. Consider `C[C@@H](c1cnccc1F)n1ncc2ncc(Nc3cc(OC(F)F)[nH]n3)nc21` (single isomer, unassigned) [Example 174, (R)-N-(5-(difluoromethoxy)-1H-pyrazol-3-yl)-1-(1-(4-fluoropyridin-3-yl)ethyl)-1H-pyrazolo[3,4-b]pyrazin-6-amine or (S)-N-(5-(difluoromethoxy)-1H-pyrazol-3-yl)-1-(1-(4-fluoropyridin-3-yl)ethyl)-1H-pyrazolo[3,4-b]pyrazin-6-amine], for which the pIC50 on CDK1/Cyclin B1, GST-tag is at most 6.30; at CDK2/Cyclin E (setting [1]), below 7.00. The corresponding values for `N#C[C@H]1C[C@@H]1Cn1ncc2ncc(Nc3cc(OC(F)F)[nH]n3)nc21` (single isomer, unassigned) [Example 27, (1S,2S)-2-((6-((5-(difluoromethoxy)-1H-pyrazol-3-yl)amino)-1H-pyrazolo[3,4-b]pyrazin-1-yl)methyl)cyclopropane-1-carbonitrile or (1R,2R)-2-((6-((5-(difluoromethoxy)-1H-pyrazol-3-yl)amino)-1H-pyrazolo[3,4-b]pyrazin-1-yl)methyl)cyclopropane-1-carbonitrile] are 6.30 to 7.00 and at least 8.00. With `OC[C@@H](c1ccccc1)n1ncc2ncc(Nc3cc(OC(F)F)[nH]n3)nc21` [Example 203, (R)-2-(6-((5-(difluoromethoxy)-1H-pyrazol-3-yl)amino)-1H-pyrazolo[3,4-b]pyrazin-1-yl)-2-phenylethan-1-ol], the pIC50 at CDK1/Cyclin B1, GST-tag is at most 6.30; on CDK2/Cyclin E (setting [1]), 7.00 to 7.52. The corresponding values for `FC(F)Oc1cc(Nc2cnc3cnn(CC4CC5CCC(C4)O5)c3n2)n[nH]1` (centres unmarked) [Example 99, 1-((8-oxabicyclo[3.2.1]octan-3-yl)methyl)-N-(5-(difluoromethoxy)-1H-pyrazol-3-yl)-1H-pyrazolo[3,4-b]pyrazin-6-amine] are at most 6.30 and at least 8.00.

Consider `FC(F)Oc1cc(Nc2cnc3cnn(CC4CCC4)c3n2)n[nH]1` [Example 101, 1-(cyclobutylmethyl)-N-(5-(difluoromethoxy)-1H-pyrazol-3-yl)-1H-pyrazolo[3,4-b]pyrazin-6-amine], for which the pIC50 was 6.30 to 7.00 at CDK1/Cyclin B1, GST-tag and at least 8.00 on CDK2/Cyclin E (setting [1]). On the same counts, the results for `FC(F)Oc1cc(Nc2cnc3cnn(C[C@@]4(F)CCOC4)c3n2)n[nH]1` (single isomer, unassigned) [Example 167, (S)-N-(5-(difluoromethoxy)-1H-pyrazol-3-yl)-1-((3-fluorotetrahydrofuran-3-yl)methyl)-1H-pyrazolo[3,4-b]pyrazin-6-amine or (R)-N-(5-(difluoromethoxy)-1H-pyrazol-3-yl)-1-((3-fluorotetrahydrofuran-3-yl)methyl)-1H-pyrazolo[3,4-b]pyrazin-6-amine] are at most 6.30 and 7.52 to 7.70.

In the case of `CC(c1cccn(C)c1=O)n1ncc2ncc(Nc3cc(OC(F)F)[nH]n3)nc21` (centres unmarked), the pIC50 at CDK2/Cyclin E (additional compounds not disclosed herein, assays of Biological Example 1, read-out: inhibitory activity for CDK2/cyclin E1) was below 5.00.
